Columns and labels:
[1] = system: delayed-type hypersensitivity to SRBC antigen; conditions: intraperitoneal administration, mouse hind paws; cited from earlier work
splenocytes [2] = test: Mitogen (PHA/PMA, PMA/A23187, PHA)-stimulated splenocyte adhesion and proliferation, ex vivo; assay type: in vivo, mice
Protocol: (A) β-oxa-21:3n-3 or vehicle was injected intraperitoneally to 5 day SRBC-sensitized mice. After 2 h splenocytes (1×10^6 cells) were cultured in a 24 well tissue culture plate (Nunc, Inc. […] Cells were fixed with 2% Para formaldehyde and inspected under a light microscopy and photographed. (B) β-oxa-21:3n-3 or vehicle was injected intraperitoneally or intravenously to 5 day SRBC-sensitized mice. After 2 h splenocytes (0.2 million) were cultured in a 96 well tissue culture plate (Nunc, Inc. Denmark) in the presence of PHA and PMA (PHA/PMA) or PMA (10 ng/ml) and A23187 ([…]) (PMA/A23187) for 3 days. Thymidine incorporation for final 16 hours of culture was determined. The data represents the mean±SEM of 3 separate experiments each conducted in quintuplets.
6-7 weeks old Balb/c mice were injected subcutaneously with 100 μl of 10% sheep red blood cells (IMVS, Inc., Adelaide, Australia) After 5 days 100 ul of β-oxa-21:3n-3 at indicated amounts were injected intraperitoneally, intravenously or gavaged orally. In another experimental set up mice were given β-tha-21:3n-3 i.p. In a third approach mice were infected subcutaneously with 100 μl of Tetanus Toxoid (2,500 Lf/ml). Then 7 days later were given β-oxa-21:3n-3. At indicated time points mice were sacrificed and spleens were removed. Single cell suspensions were prepared and white blood cells (WBC) were enriched by passing through Ficoll-Paque Plus (GE Healthcare). Cells were washed with RPMI-1640 containing 10% fetal bovine serum, 10 mM Hepes, antibiotics and glutamine (RPMI-10) and counted using an automated Cell-Dyne 3500R (Abbott, Inc. MA) instrument. Cells were viable (>98%) as judged by trypan blue exclusion. (β-oxa-21:3n-3)- or vehicle-treated mouse samples (200,000/well) were mixed either with SRBC (600,000/well) with 100 μl of Tetanus toxoid (50 Lf/ml) or phytohaemaglutinin (PHA) (2 μg/ml) or with PHA plus phorbol myristate acetate (PMA) (10 ng/ml) or with PMA plus calcium ionophore A23187 ([…]). Cells were cultured in 96 well U bottom plates (Nunc, Inc. Denmark) for 3 days (except for TT −5 days) at 37° C. under humidified air containing 5% CO2. At some instances 50 μl of supernatants were transferred to a new plate and frozen immediately at −70° C. to be used for cytokine measurements. Thymidine (50 μl, 1 μCi/well) was added at final 16 hours of culture. Cells were harvested and thymidine incorporation was determined using a beta scintillation counter.
To assess whether or not the immunosuppression observed was restricted to antigen-dependent stimulation, we explored the effect of β-oxa-21:3n-3 on mitogen-induced splenocyte adhesion and proliferation. […] The cells were cultured for 3 days and the extent of proliferation was assessed by thymidine incorporation.

[3] = system: circulating cytokine levels; test: Circulating cytokine levels in SRBC-sensitized mice after intravenous SRBC challenge; assay type: in vivo; conditions: serum, 80 mg/kg IP, 6 h after IV SRBC; ELISA
splenocytes [4] = test: Tetanus toxoid (TT)-induced ex vivo lymphocyte proliferation after administration to TT-immunized mice; conditions: 10, 40 and 80 mg/kg i.p. in mouse serum, spleens removed 2 h later
Protocol: Mice were immunized with SRBC. After 5 days they were given β-thia-21:3n-3 at the indicated doses i.p. After 2 hours the spleens were removed and processed into single cell suppressions. These were then cultured in the presence (□), or absence of (▪) of SRBC to assess the proliferation. The results are expressed as mean±SEM of 3 experiments. (B) Effect of β-oxa-21:3n-3 on tetanus toxoid (TT)-induced ex vivo lymphocyte responses. Mice were immunized with TT subcutaneously and after 7 days were given β-oxa-21:3n-3 in mouse serum, intraperitoneally. Two hours later the spleen removed, single cell suspension prepared and examined for lymphoproliferation responses to TT in 5 day cultures. The results are expressed as mean±SEM of 3 experiments.
6-7 weeks old Balb/c mice were injected subcutaneously with 100 μl of 10% sheep red blood cells (IMVS, Inc., Adelaide, Australia) After 5 days 100 ul of β-oxa-21:3n-3 at indicated amounts were injected intraperitoneally, intravenously or gavaged orally. […] Cells were washed with RPMI-1640 containing 10% fetal bovine serum, 10 mM Hepes, antibiotics and glutamine (RPMI-10) and counted using an automated Cell-Dyne 3500R (Abbott, Inc. MA) instrument. […] Cells were harvested and thymidine incorporation was determined using a beta scintillation counter. […]

human lymphocytes = test: Human lymphocyte proliferation assay, mitogen (PHA)-induced; assay type: cell-based; conditions: PHA-stimulated human lymphocytes, in vitro; read-out: IC50 for the PHA-stimulated response
[5] = system: Th1, Th2 and macrophage-related cytokines; test: Ex vivo cytokine production by antigen (SRBC)-stimulated splenocytes; assay type: in vivo, mice; conditions: splenocytes cultured 3 days with SRBC, IP dosing
spleen cells = test: Viability and composition of splenic cells by microscopy and flow cytometry; assay type: in vivo, mice
Protocol: Data acquisition was performed using a BD Immunocytometry Systems four-color FACScalibur (Mountain View, Calif.), and the acquired data were analyzed using FloJo software (Tree Star Inc., Palo Alto, Calif.).
To exclude that this effect of β-oxa-21:3n-3 was not due to necrosis or apoptosis of the splenic cells, we examined the viability and composition of live splenic cells from animals treated with this fatty acid, by microscopy and flow cytometry.

[6] = IP- or IV-administered, 3 days culture, thymidine incorporation

Compound: CC/C=C\C/C=C\C/C=C\CCCCCCCCOCC(=O)O [β-oxa-21:3n-3]
- delayed-type hypersensitivity to SRBC antigen [1]: inhibition
- splenocyte proliferation in response to PHA-PMA (splenocytes [2]; [6]): not affected in their responsiveness
- splenocyte proliferation in response to PMA-A23187 (splenocytes [2]; [6]): not affected in their responsiveness
- splenocyte adherence (splenocytes [2]; PHA and PMA stimulation for 4 h, SRBC pre-sensitized mice): not affected
- splenocyte proliferation in response to PHA alone (splenocytes [2]; not shown): did not affect
- TGFβ conc [3]: (52 ± 6) × 10^3 pg/ml
- lymphoproliferation in response to TT (splenocytes [4]): capable of inhibiting the response
- IC50 (human lymphocytes): 30 µM
- antigen-induced macrophage cytokine levels (MCP-1, KC, IL-12) [5]: no significant effects
- antigen-stimulated Th1 cytokines (IL-2, IL-6, IFNγ and TNFα) [5]: concentration-dependent reduction
- antigen-stimulated Th2 cytokines (IL-4, IL-5, IL-10 and IL-13) [5]: concentration-dependent reduction
- viable cells (excluded propidium iodide) (spleen cells; spleen cells from treated SRBC-sensitized mice): > 95%
- viable cell numbers versus vehicle-treated mice (spleen cells; spleen cells, SRBC-sensitized mice): no major difference

— patent US20100104546A1, “MODULATORS OF ANTIGEN-DEPENDENT T CELL PROLIFERATION” (CHILDREN, YOUTH AND WOMEN'S HEALTH SERVICE, priority 2007, published 2010)
